# Source: ChEMBL document CHEMBL6078677, “Discovery and optimization of tetrahydroacridine derivatives as a novel class of antibiotics against multidrug-resistant Gram-positive pathogens by targeting type I signal peptidase and disrupting bacterial membrane” (Eur J Med Chem, 2025)
# Columns and labels:
# Staphylococcus aureus [1] = test: Antimicrobial activity against Staphylococcus aureus ATCC 29213 assessed as inhibition of visible growth of bacteria incubated for 20 hrs by broth microdilution method; assay type: functional
# Enterococcus faecium [2] = test: Antimicrobial activity against Enterococcus faecium QF31 harboring erythromycin resistance rRNA methylase B and chloramphenicol-florfenicol resistance methylase assessed as inhibition of visible growth of bacteria incubated for 20 hrs by broth microdilution method; assay type: functional
# Enterococcus faecalis [3] = test: microbe, parasite or virus in culture; assay type: functional; settings: SF23-1, time 20 hrs
# Description: Antimicrobial activity against Enterococcus faecalis SF23-1 harboring erythromycin-resistance rRNA methylase B, tetracycline efflux protein L and chloramphenicol-florfenicol resistance methylase assessed as inhibition of visible growth of bacteria incubated for 20 hrs by broth microdilution method
# Streptococcus suis [4] = test: Antimicrobial activity against Streptococcus suis P1/7 assessed as inhibition of visible growth of bacteria incubated for 20 hrs by broth microdilution method; assay type: functional
# Staphylococcus aureus [5] = test: Antimicrobial activity against Staphylococcus aureus YZSA-15 harboring erythromycin resistance rRNA methylase C and vancomycin resistance locus assessed as inhibition of visible growth of bacteria incubated for 20 hrs by broth microdilution method; assay type: functional
# Staphylococcus aureus [6] = test: Antimicrobial activity against Staphylococcus aureus YZSA-21 harboring erythromycin resistance rRNA methylase C assessed as inhibition of visible growth of bacteria incubated for 20 hrs by broth microdilution method; assay type: functional
# Staphylococcus aureus [7] = test: Antimicrobial activity against Staphylococcus aureus YZSA-24 harboring erythromycin resistance rRNA methylase C and methicillin resistance gene resistance locus assessed as inhibition of visible growth of bacteria incubated for 20 hrs by broth microdilution method; assay type: functional
# Staphylococcus aureus [8] = test: microbe, parasite or virus in culture; assay type: functional; settings: M92-1, time 20 hrs
# Description: Antimicrobial activity against Staphylococcus aureus M92-1 harboring erythromycin resistance rRNA methylase B, tetracycline efflux protein L and oxazolidinone-phenicol transferable resistance gene assessed as inhibition of visible growth of bacteria incubated for 20 hrs by broth microdilution method
# Staphylococcus aureus [9] = test: microbe, parasite or virus in culture; assay type: functional; settings: M147-2, time 20 hrs
# Description: Antimicrobial activity against Staphylococcus aureus M147-2 harboring erythromycin resistance rRNA methylase B, tetracycline efflux protein L and chloramphenicol-florfenicol resistance methylase assessed as inhibition of visible growth of bacteria incubated for 20 hrs by broth microdilution method
# Enterococcus faecium [10] = test: Antimicrobial activity against Enterococcus faecium HFY01 assessed as inhibition of visible growth of bacteria incubated for 20 hrs by broth microdilution method; assay type: functional
# Enterococcus faecium [11] = test: Antimicrobial activity against Enterococcus faecium MC38 harboring erythromycin resistance rRNA methylase B and oxazolidinone-phenicol transferable resistance gene assessed as inhibition of visible growth of bacteria incubated for 20 hrs by broth microdilution method; assay type: functional
# Enterococcus faecalis [12] = test: Antimicrobial activity against Enterococcus faecalis JH2-2 assessed as inhibition of visible growth of bacteria incubated for 20 hrs by broth microdilution method; assay type: functional
# Enterococcus faecalis [13] = test: Antimicrobial activity against Enterococcus faecalis ES01 harboring erythromycin-resistance rRNA methylase B and vanB-type vancomycin-resistance locus assessed as inhibition of visible growth of bacteria incubated for 20 hrs by broth microdilution method; assay type: functional
# Enterococcus faecalis [14] = test: Antimicrobial activity against Enterococcus faecalis J2 harboring erythromycin-resistance rRNA methylase B and oxazolidinone phenicol transferable resistance gene assessed as inhibition of visible growth of bacteria incubated for 20 hrs by broth microdilution method; assay type: functional
# Streptococcus suis [15] = test: microbe, parasite or virus in culture; assay type: functional; settings: SH0918, time 20 hrs
# Description: Antimicrobial activity against Streptococcus suis SH0918 harboring erythromycin-resistance rRNA methylase B, tetracycline efflux protein O and oxazolidinone phenicol transferable resistance gene assessed as inhibition of visible growth of bacteria incubated for 20 hrs by broth microdilution method
# Streptococcus pyogenes = test: Antimicrobial activity against Streptococcus pyogenes DL02 harboring erythromycin-resistance rRNA methylase B assessed as inhibition of visible growth of bacteria incubated for 20 hrs by broth microdilution method; assay type: functional
# Streptococcus agalactiae = test: Antimicrobial activity against Streptococcus agalactiae DL03 harboring erythromycin-resistance rRNA methylase B assessed as inhibition of visible growth of bacteria incubated for 20 hrs by broth microdilution method; assay type: functional
# Escherichia coli = test: Antimicrobial activity against Escherichia coli ATCC 25922 assessed as inhibition of visible growth of bacteria incubated for 20 hrs by broth microdilution method; assay type: functional
# Salmonella enteritidis = test: Antimicrobial activity against Salmonella enteritis S1 assessed as inhibition of visible growth of bacteria incubated for 20 hrs by broth microdilution method; assay type: functional, Salmonella enterica subsp. enterica serovar Enteritidis; settings: Salmonella enterica
# Klebsiella pneumoniae = test: Antimicrobial activity against Klebsiella pneumoniae 9-1 assessed as inhibition of visible growth of bacteria incubated for 20 hrs by broth microdilution method; assay type: functional
# Acinetobacter baumannii [16] = test: Antimicrobial activity against Acinetobacter baumannii AB11 assessed as inhibition of visible growth of bacteria incubated for 20 hrs by broth microdilution method; assay type: functional
# Acinetobacter baumannii [17] = test: Antimicrobial activity against Acinetobacter baumannii 7979 assessed as inhibition of visible growth of bacteria incubated for 20 hrs by broth microdilution method; assay type: functional
# Pseudomonas aeruginosa [18] = test: Antimicrobial activity against Pseudomonas aeruginosa PA01 assessed as inhibition of visible growth of bacteria incubated for 20 hrs by broth microdilution method; assay type: functional
# Pseudomonas aeruginosa [19] = test: Antimicrobial activity against Pseudomonas aeruginosa PA14 assessed as inhibition of visible growth of bacteria incubated for 20 hrs by broth microdilution method; assay type: functional
SMILES,MIC (Staphylococcus aureus [1]) [µg/mL],MIC (Enterococcus faecium [2]) [µg/mL],MIC (Enterococcus faecalis [3]) [µg/mL],MIC (Streptococcus suis [4]) [µg/mL],MIC (Staphylococcus aureus [5]) [µg/mL],MIC (Staphylococcus aureus [6]) [µg/mL],MIC (Staphylococcus aureus [7]) [µg/mL],MIC (Enterococcus faecalis [12]) [µg/mL],MIC (Enterococcus faecalis [13]) [µg/mL],MIC (Enterococcus faecalis [14]) [µg/mL],MIC (Streptococcus suis [15]) [µg/mL],MIC (Streptococcus pyogenes) [µg/mL],MIC (Streptococcus agalactiae) [µg/mL],MIC (Escherichia coli) [µg/mL],MIC (Salmonella enteritidis) [µg/mL],MIC (Klebsiella pneumoniae) [µg/mL],MIC (Acinetobacter baumannii [16]) [µg/mL],MIC (Acinetobacter baumannii [17]) [µg/mL],MIC (Pseudomonas aeruginosa [18]) [µg/mL],MIC (Pseudomonas aeruginosa [19]) [µg/mL],further results
CCC[C@@H]1C[C@@H](C(=O)N[C@@H]([C@H]2O[C@H](SC)[C@H](O)[C@@H](O)[C@H]2O)[C@H](C)Cl)N(C)C1 [CLINDAMYCIN],0.125,> 32,> 32,0.125,> 32,> 32,> 32,0.5,> 32,> 32,> 32,> 32,> 32,> 32,> 32,> 32,0.5,> 32,> 32,> 32,MIC (Staphylococcus aureus [8]): > 32 µg/mL; MIC (Staphylococcus aureus [9]): > 32 µg/mL; MIC (Enterococcus faecium [10]): 0.5 µg/mL; MIC (Enterococcus faecium [11]): > 32 µg/mL
C[C@H]1c2cccc(O)c2C(=O)C2=C(O)[C@]3(O)C(=O)C(C(N)=O)=C(O)[C@@H](N(C)C)[C@@H]3[C@@H](O)[C@@H]21 [DOXYCYCLINE ANHYDROUS],0.25,16,16,0.125,0.25,0.25,0.5,4,2,8,16,2,< 0.06,1,> 32,> 32,< 0.06,> 32,8,16,MIC (Staphylococcus aureus [8]): > 32 µg/mL; MIC (Staphylococcus aureus [9]): > 32 µg/mL; MIC (Enterococcus faecium [10]): < 0.06 µg/mL; MIC (Enterococcus faecium [11]): 16 µg/mL
CC[C@H]1OC(=O)[C@H](C)[C@@H](O[C@H]2C[C@@](C)(OC)[C@@H](O)[C@H](C)O2)[C@H](C)[C@@H](O[C@@H]2O[C@H](C)C[C@H](N(C)C)[C@H]2O)[C@](C)(O)C[C@@H](C)C(=O)[C@H](C)[C@@H](O)[C@]1(C)O [ERYTHROMYCIN],1,> 32,> 32,0.125,> 32,> 32,> 32,0.25,> 32,> 32,> 32,> 32,> 32,–,–,–,–,–,–,–,MIC (Staphylococcus aureus [8]): > 32 µg/mL; MIC (Staphylococcus aureus [9]): > 32 µg/mL; MIC (Enterococcus faecium [10]): 2 µg/mL; MIC (Enterococcus faecium [11]): > 32 µg/mL
C[C@H]1COc2c(N3CCN(C)CC3)c(F)cc3c(=O)c(C(=O)O)cn1c23 [LEVOFLOXACIN ANHYDROUS],–,–,–,–,–,–,–,–,–,–,–,–,–,0.125,0.5,> 32,0.125,> 32,0.5,0.125,–
C[C@@H](O)[C@H]1C(=O)N2C(C(=O)O)=C(S[C@@H]3CN[C@H](C(=O)N(C)C)C3)[C@H](C)[C@H]12 [MEROPENEM],–,–,–,–,–,–,–,–,–,–,–,–,–,0.25,0.25,4,< 0.06,> 32,0.5,0.5,–
CN[C@H](CC(C)C)C(=O)N[C@H]1C(=O)N[C@@H](CC(N)=O)C(=O)N[C@H]2C(=O)N[C@H]3C(=O)N[C@H](C(=O)N[C@H](C(=O)O)c4cc(O)cc(O)c4-c4cc3ccc4O)[C@H](O)c3ccc(c(Cl)c3)Oc3cc2cc(c3O[C@@H]2O[C@H](CO)[C@@H](O)[C@H](O)[C@H]2O[C@H]2C[C@](C)(N)[C@H](O)[C@H](C)O2)Oc2ccc(cc2Cl)[C@H]1O [VANCOMYCIN],–,–,2,< 0.06,16,–,< 0.06,2,16,2,< 0.06,< 0.06,0.125,–,–,–,–,–,–,–,–
